The CC50 is the concentration giving 50% cytotoxicity. A lower CC50 goes with greater toxicity to the cells.

Where a name gives a salt, the structure may show the parent alone.

The source of these data is paper PMC6792352, “Limited Chemical Structural Diversity Found to Modulate Thyroid Hormone Receptor in the Tox21 Chemical Library” (Environmental Health Perspectives, 2019).

The nature of the first series: in vitro. The settings on record: rat, gh3-tre-luc cells, AC50 (uM) modified / 1000.
For the molecule `CN1CCN(CC/C=C2/c3ccccc3Sc3ccc(S(=O)(=O)N(C)C)cc32)CC1` [Thiothixene], the CC50 at 24 h stood at 10.7 µM. As for `O=c1cc[nH]c(=S)[nH]1` [Thiouracil], the CC50 at 24 h was over 90 µM. `NC(N)=S` [Thiourea] came in with a CC50 at 24 h of over 90 µM. The same measure, in the same setting: under `O=c1oc2cc(O)ccc2s1` [Thioxolone] stands over 50 µM; under `CCCCCCCCCCCCCCCC[N+](C)(C)CCN(Cc1ccc(OC)cc1)c1ncccn1` [Thonzonium bromide], 14.6 µM; under `COc1ccc(CN(CCN(C)C)c2ncccn2)cc1` [Thonzylamine hydrochloride], over 50 µM.

In the case of `Cc1cn([C@H]2C[C@H](O)[C@@H](CO)O2)c(=O)[nH]c1=O` [Thymidine], the half-maximal cytotoxic concentration (CC50) at 24 h is over 50 µM. As for `Cc1cc(OI)c(C(C)C)cc1-c1cc(C(C)C)c(OI)cc1C` [Thymol iodide], the half-maximal cytotoxic concentration (CC50) at 24 h was over 50 µM.

`Cc1ccc(C(C)C)c(O)c1` [Thymol] came in with a CC50 at 24 h of over 90 µM. As for `Cc1ccsc1C(=CCCN1CCC[C@@H](C(=O)O)C1)c1sccc1C` [Tiagabine hydrochloride], the 50% cytotoxic concentration (CC50) at 24 h is over 50 µM.

Turning to `C=C[C@]1(C)C[C@@H](OC(=O)CSCCN(CC)CC)[C@]2(C)[C@H](C)CC[C@]3(CCC(=O)[C@H]32)[C@@H](C)[C@@H]1O` [Tiamulin], the CC50 at 24 h came to 14.1 µM.

`CCN(CC)CCNC(=O)c1cc(S(C)(=O)=O)ccc1OC` [Tiapride hydrochloride] had a CC50 at 24 h of over 20 µM. `CC(C(=O)O)c1ccc(C(=O)c2ccccc2)s1` (centres unmarked) [Tiaprofenic acid] came in with a 50% cytotoxic concentration (CC50) at 24 h of over 20 µM.

Turning to `O=C(Cn1c(=O)sc2ccc(Cl)cc21)N1CCN(CCO)CC1` [Tiaramide hydrochloride], the half-maximal cytotoxic concentration (CC50) at 24 h was over 50 µM. `C#C[C@]1(O)CC[C@H]2[C@@H]3[C@H](C)CC4=C(CCC(=O)C4)[C@H]3CC[C@@]21C` [Tibolone]: the midpoint of cytotoxicity, the CC50 at 24 h, lay at 51.8 µM. The same measure, in the same setting: with `O=C(Nc1ccc(Br)cc1)c1cc(Br)c(Br)s1` [Tibrofan] the figure was 19.8 µM. Same read-out and setting: with `CC1(C)S[C@@H]2[C@H](NC(=O)C(C(=O)O)c3ccsc3)C(=O)N2[C@H]1C(=O)O` (some centres unmarked) [Ticarcillin disodium] the figure was over 50 µM; with `Clc1ccccc1CN1CCc2sccc2C1` [Ticlopidine], 21.6 µM. As to `O=C(O)COc1ccc(C(=O)c2cccs2)c(Cl)c1Cl` [Ticrynafen], the half-maximal cytotoxic concentration (CC50) at 24 h is over 50 µM. Still for that read-out and setting: with `CN(C)c1cc(NC(=O)CNC(C)(C)C)c(O)c2c1C[C@H]1C[C@H]3[C@H](N(C)C)C(O)=C(C(N)=O)C(=O)[C@@]3(O)C(O)=C1C2=O` [Tigecycline] the figure was over 50 µM.

`CNC(=N)NCCC[C@H](N)C(=O)O` [Tilarginine acetate] showed a 50% cytotoxic concentration (CC50) at 24 h of over 50 µM. Take `CCNC1(c2cccs2)CCCCC1=O` (centres unmarked) [Tiletamine hydrochloride]: the CC50 at 24 h is over 20 µM. Still for that read-out and setting: under `Cc1ccc(O)c2ncccc12` [Tiliquinol] stands 4.67 µM; under `CC[C@H]1OC(=O)C[C@@H](O)[C@H](C)[C@@H](O[C@@H]2O[C@H](C)[C@@H](O)[C@H](N(C)C)[C@H]2O)[C@@H](CCN2C[C@H](C)C[C@H](C)C2)C[C@@H](C)C(=O)/C=C/C(C)=C/[C@@H]1CO[C@@H]1O[C@H](C)[C@@H](O)[C@@H](OC)[C@H]1OC` [Tilmicosin], over 50 µM. With `CCN(CC)CCOc1ccc2c(c1)C(=O)c1cc(OCCN(CC)CC)ccc1-2` [Tilorone], the CC50 at 24 h was over 50 µM. The same measure, in the same setting: under `O=P(O)(O)C(Sc1ccc(Cl)cc1)P(=O)(O)O` [Tiludronate disodium] stands over 50 µM; under `O=C(CCCN1CCC(n2c(=S)[nH]c3ccccc32)CC1)c1ccc(F)cc1` [Timiperone], 23.9 µM. Still for that read-out and setting: with `CCS(=O)(=O)CCn1c([N+](=O)[O-])cnc1C` [Tinidazole] the figure was over 20 µM. On the same count and under the same terms, with `CCOC(=O)c1c(N)sc2c1CCN(Cc1ccccc1)C2` [Tinoridine] the figure was over 50 µM; with `Clc1ccc(C(Cn2ccnc2)OCc2ccsc2Cl)c(Cl)c1` (centres unmarked) [Tioconazole], 14.7 µM; with `CC(S)C(=O)NCC(=O)O` (centres unmarked) [Tiopronin], over 50 µM. In the case of `CNC(=NCCSCc1csc(N=C(N)N)n1)NC#N` [Tiotidine], the CC50 at 24 h is over 50 µM. Still for that read-out and setting: under `C[N+]1(C)[C@@H]2C[C@@H](OC(=O)C(O)(c3cccs3)c3cccs3)C[C@H]1[C@@H]1O[C@@H]12` [Tiotropium bromide] stands over 50 µM; under `CCCOc1ccc2nc(NC(=O)OC)sc2c1` [Tioxidazole], 2.38 µM. `CCC[C@@]1(CCc2ccccc2)CC(O)=C([C@H](CC)c2cccc(NS(=O)(=O)c3ccc(C(F)(F)F)cn3)c2)C(=O)O1` [Tipranavir]: the CC50 at 24 h was over 50 µM. On to `CCOC(=O)Nc1ccc2c(c1)N(C(=O)CN(C)C)c1ccccc1CC2` [Tiracizine], for which it took 41.3 µM to reach half-maximal cytotoxicity (CC50 at 24 h). The molecule `O=C(O)Cc1cc(I)c(Oc2ccc(O)c(I)c2)c(I)c1` [Tiratricol] gave a CC50 at 24 h of over 20 µM. The same measure, in the same setting: under `CCCCS(=O)(=O)N[C@@H](Cc1ccc(OCCCCC2CCNCC2)cc1)C(=O)O` [Tirofiban hydrochloride monohydrate] stands over 50 µM; under `O=S(=O)(O)c1cc(O)c(O)c(S(=O)(=O)O)c1` [Tiron], over 90 µM. The molecule `Clc1ccc2nsnc2c1NC1=NCCN1` [Tizanidine] came in with a cytotoxic concentration (CC50) at 24 h of over 50 µM. Molecule `COc1ccc(CNCC(O)COc2ccc3[nH]c(=O)ccc3c2)cc1OC` (centres unmarked) [Toborinone] yielded a CC50 at 24 h of over 50 µM. For the molecule `NC[C@H]1O[C@H](O[C@H]2[C@H](O)[C@@H](O[C@H]3O[C@H](CO)[C@@H](O)[C@H](N)[C@H]3O)[C@H](N)C[C@@H]2N)[C@H](N)C[C@@H]1O` [Tobramycin], the CC50 at 24 h was over 20 µM. On the same count and under the same terms, under `Cc1cccc(C)c1NC(=O)C(C)N` (centres unmarked) [Tocainide hydrochloride] stands over 20 µM; under `CCOC(=O)NNc1nncc2ccccc12` [Todralazine hydrochloride], over 50 µM. Still for that read-out and setting: under `CCC1C(C)=NN=C(c2ccc(OC)c(OC)c2)c2cc(OC)c(OC)cc21` (centres unmarked) [Tofisopam] stands over 50 µM. Molecule `Cc1ccccc1OCC(O)CNCCOc1ccc(C(N)=O)cc1` (centres unmarked) [Tolamolol] gave a 50% cytotoxic concentration (CC50) at 24 h of 13.4 µM. `Cc1ccc(S(=O)(=O)NC(=O)NN2CCCCCC2)cc1` [Tolazamide]: the CC50 at 24 h is over 90 µM. `c1ccc(CC2=NCCN2)cc1` [Tolazoline hydrochloride]: the CC50 at 24 h is over 20 µM. The same measure, in the same setting: under `CCCCNC(=O)NS(=O)(=O)c1ccc(C)cc1` [Tolbutamide] stands over 90 µM; under `Cc1ccc(C(=O)c2cc(O)c(O)c([N+](=O)[O-])c2)cc1` [Tolcapone], 72.4 µM. Still for that read-out and setting: under `Cc1c(Cl)cccc1Nc1ccccc1C(=O)O` [Tolfenamic acid] stands over 50 µM. Still for that read-out and setting: with `Cc1cccc(N(C)C(=S)Oc2ccc3c(c2)CCC3)c1` [Tolindate] the figure was over 50 µM; with `Cc1ccc(C(=O)c2ccc(CC(=O)O)n2C)cc1` [Tolmetin sodium dihydrate], over 20 µM; with `Cc1ccc(S(=O)(=O)NC(=O)NC2CCCC2)cc1` [Tolpentamide], over 50 µM.

As for `Cc1ccc(C(=O)C(C)CN2CCCCC2)cc1` (centres unmarked) [Tolperisone hydrochloride], the half-maximal cytotoxic concentration (CC50) at 24 h was over 50 µM. `Cc1ccc(O)c([C@H](CCN(C(C)C)C(C)C)c2ccccc2)c1` [Tolterodine]: the CC50 at 24 h is 18.9 µM. On to `Cc1cc(-n2c(=O)[nH]c(=O)n(C)c2=O)ccc1Oc1ccc(S(=O)(=O)C(F)(F)F)cc1` [Toltrazuril sulfone], for which the half-maximal cytotoxic concentration (CC50) at 24 h is over 50 µM. Same read-out and setting: under `Cc1c(N=C=O)cccc1N=C=O` [Toluene-2,6-diisocyanate] stands over 90 µM; under `Cc1ccccc1` [Toluene], over 90 µM; under `Cc1ccccc1C(=O)Nc1ccc(C(=O)N2CCCC(O)c3cc(Cl)ccc32)c(C)c1` (centres unmarked) [Tolvaptan], over 50 µM. Same read-out and setting: with `Cc1ccc(N(SC(F)(Cl)Cl)S(=O)(=O)N(C)C)cc1` [Tolylfluanid] the figure was 3.13 µM. On to `C[C@H]1CC[C@]2(NC1)O[C@H]1C[C@H]3[C@@H]4CC[C@H]5C[C@@H](O)CC[C@]5(C)[C@H]4CC[C@]3(C)[C@H]1[C@@H]2C` [Tomatidine hydrochloride], for which half-maximal cytotoxicity (CC50 at 24 h) was put at 47 µM. Same read-out and setting: with `CCCc1c(OCCCCc2nnn[nH]2)ccc(C(C)=O)c1O` [Tomelukast] the figure was over 50 µM; with `CC1(C)O[C@@H]2[C@@H](CO[C@@]3(COS(N)(=O)=O)OC(C)(C)O[C@@H]23)O1` [Topiramate], over 90 µM. Still for that read-out and setting: with `CC[C@@]1(O)C(=O)OCc2c1cc1n(c2=O)Cc2cc3c(CN(C)C)c(O)ccc3nc2-1` [Topotecan hydrochloride] the figure was over 50 µM. As for `Cc1c(C(=O)c2c[nH]n(C)c2=O)ccc(S(C)(=O)=O)c1C1=NOCC1` [Topramezone], the CC50 at 24 h was over 40 µM. For the molecule `Cc1cccc(Nc2ccncc2S(=O)(=O)NC(=O)NC(C)C)c1` [Torsemide], the CC50 at 24 h was over 20 µM. As to `Cc1ccc(S(=O)(=O)NC(=O)N[C@@H](C)Cc2ccccc2)cc1` [Tosifen], the 50% cytotoxic concentration (CC50) at 24 h was over 50 µM. With `NC1CCN(c2nc3c(cc2F)c(=O)c(C(=O)O)cn3-c2ccc(F)cc2F)C1` (centres unmarked) [Tosufloxacin toluenesulfonic acid], the CC50 at 24 h was over 50 µM.

`CCCCNc1c(C(=O)OCC)c(C)nc2c1cnn2CC` [Tracazolate hydrochloride] yielded a half-maximal cytotoxic concentration (CC50) at 24 h of over 50 µM.

The series is the same for the next values; noted with them: rat, gh3-tre-luc cells, AC50 (uM) modified / 1000, Tox21_110001=Tox21_112428; viability, 1 nM T3 present, 24 h.
The molecule `CN1CCCC(=C(c2cccs2)c2cccs2)C1` [Tipepidine] registered a CC50 at 24 h of over 50 µM.

The series is the same for the next values; noted with them: rat, gh3-tre-luc cells, AC50 (uM) modified / 1000, Tox21_110001=Tox21_112659; viability, 1 nM T3 present, 24 h.
`COC1CC(=C(c2cccs2)c2cccs2)C[N+](C)(C)C1` (centres unmarked) [Timepidium bromide] came in with a CC50 at 24 h of over 50 µM.

Staying with this series, now noted: rat, gh3-tre-luc cells, AC50 (uM) modified / 1000, Tox21_110001=Tox21_200144; viability, 1 nM T3 present, 24 h.
With `Cc1ccc(N=C=O)cc1N=C=O` [Toluene diisocyanate], the half-maximal cytotoxic concentration (CC50) at 24 h was over 90 µM.

Still in this series, the particulars now being: rat, gh3-tre-luc cells, AC50 (uM) modified / 1000, Tox21_110001=Tox21_301347; viability, 1 nM T3 present, 24 h.
Molecule `COP(=S)(OC)Oc1c(Cl)cc(C)cc1Cl` [Tolclofos-methyl] had a 50% cytotoxic concentration (CC50) at 24 h of over 90 µM.
